Experiments:
Assay type in all cases: cell-based, Saccharomyces cerevisiae
[1] = system: MATa-type super barrier-free YKO strains; assay: Cycloheximide sensitivity of MATa-type super barrier-free YKO strains; settings: cycloheximide 25 ng/ml; all strains
Protocol: Instead of picking up the entire grown colonies with the 96-pin replicator, the grown colonies were picked up one by one (1 colony/strain) with a toothpick to transfer it onto new MATa selection agar medium, and culture at 30° C. for 7 days. Grown cells were picked up with a disposable 96-pin replicator, suspended in 100 μl of MATa selection liquid medium, and cultured at 25° C. for 2 to 7 days. Subsequently, the grown cells were transferred to a 384-well plate using a dispenser robot SHOTMASTER 3000.

[2] = system: barrier-free yeast; assay: Cycloheximide sensitivity of barrier-free yeast; settings: cycloheximide 50 ng/ml
[3] = system: partner strain for barrier-free YKO (BF:KE458); assay: Evaluation of sensitivity to lovastatin (area score, ARS), barrier-free partner strain
Protocol: (§1) A lovastatin solution was added to a 96-well plate such that the concentration of lovastatin (Sigma-Aldrich, #M2147) was within the range of from 0.39 μM to 100 μM. A parent strain (WT:BY4742, Open Biosystems, #YSC1049) a partner strain for barrier-free YKO (BF:KE458), and a partner strain for super barrier-free YKO (SBF:KE513), which had been subjected to static culture at room temperature for 2 days, were added to the plate such that the final cell number was at a 2000-fold dilution, and then subjected to static culture at 30° C.
(§2) Thereafter, light absorbance thereof at 620 nm was measured over time using a plate reader (SUNRISE, manufactured by Tecan) for 48 hours. Calculation of the cell proliferation inhibiting activity was carried out using the area score method (ARS) described in Japanese Patent Application Laid-Open No. 2006-141298. In ARS, a larger value indicates a greater cell proliferation inhibiting activity.

[4] = system: barrier-free YKO (BF-YKO) knockout strains; assay: Identification of target molecule using barrier-free YKO (sensitivity ranking by area score)
Protocol: Using the barrier-free YKO (BF-YKO) composed of 3,011 strains as prepared above, a target molecule of lovastatin was identified. The strains of BF-YKO were inoculated into twelve 384-well plates (1 strain/well) in an ordered manner. The static culture was performed for 3 to 7 days to equalize the number of cells across all strains. The cells were diluted 196-fold, thereby obtaining a cell dilution.
On the other hand, 384-well plates wherein 20 μl of YPAD medium containing 3.9 μM, 7.8 μM or 15.6 μM lovastatin was added to each well, and 384-well plates in which 20 μl of lovastatin-free YPAD medium was added to each well were prepared. 5 μl of the obtained cell dilution was added to each well. By this operation, the cells were diluted 1000-fold and the respective concentrations of the compound were adjusted to 3.125 μM, 6.25 μM and 12.5 μM.
(§3) These cells were cultured at 25° C., and light absorbance thereof at 650 nm was measured over time using a plate reader (SPECTRAMAX340PC384, Molecular Devices) from about 22 hours to 48 hours after the beginning of the culture. The area scores (ARS) were calculated based on the obtained data, thereby ranking the sensitivity.

[5] = system: parent strain (WT:BY4742); assay: Evaluation of sensitivity to lovastatin (area score, ARS), parent strain; settings: lovastatin concentration 100 μM, FIG. 4
Protocol: as §1, §2

[6] = system: super barrier-free YKO (SBF-YKO) knockout strains; assay: Identification of target molecule using super barrier-free YKO (sensitivity ranking by area score); settings: lovastatin 3.125 μM
Protocol: Identification of a target molecule of lovastatin was conducted using the super barrier-free YKO (SBF-YKO) composed of 4,044 strains prepared as above. The SBF-YKO strains were inoculated into twelve 384-well plates (1 strain/well) in an ordered manner, and subjected to 3 to 7 days of static culture to equalize the number of cells across all strains. The cells were diluted 196-fold, thereby obtaining a cell dilution.
On the other hand, 384-well plates in which 20 μl of YPAD medium containing 3.9 μM lovastatin was added to each well, and 384-well plates in which 20 μl of lovastatin-free YPAD medium was added to each well were prepared. 5 μl of the obtained cell dilution was added to each well. By this operation, the cells were diluted 1000-fold and the compound concentration was adjusted to 3.125 μM.
as §3
In the same manner as in Example 6, identification of a target molecule of rapamycin was conducted using super barrier-free YKO (SBF-YKO). Each of the SBF-YKO strains was subjected to 3 to 7 days of static culture to equalize the number of cells across all strains. […]

[7] = system: partner strain for super barrier-free YKO (SBF:KE513); assay: Evaluation of sensitivity to lovastatin (area score, ARS), super barrier-free partner strain
Protocol: as §1, §2

[8] = system: commercially available YKO (Invitrogen, #95401.H2) knockout strains; assay: Identification of target molecule using commercially available YKO collection (sensitivity ranking by area score)
Protocol: Identification of a target molecule of lovastatin was conducted in the same manner as in Example 7, except that commercially available YKO (Invitrogen, #95401.H2) composed of 4,847 strains was used instead of BF-YKO.
Identification of a target molecule of rapamycin was conducted in the same manner as in Example 9, except that commercially available YKO (Invitrogen, #95401.H2) composed of 4,847 strains was used instead of SBF-YKO and that the compound concentrations were changed to 10 nM, 12.5 nM and 15 nM.

[9] = system: super barrier-free strain (SBF:KE477); assay: Evaluation of sensitivity to rapamycin (area score, ARS), super barrier-free strain
Protocol: (§4) In the same manner as in Example 5, to confirm drug sensitivity of the barrier-free YKO (BF-YKO) and super barrier-free YKO (SBF-YKO), changes in sensitivity of the yeasts caused by the proliferation inhibiting effect of rapamycin were examined using a parent strain and a partner strain.
(§5) A rapamycin solution was added to a 96-well plate such that the concentration of rapamycin (Sigma-Aldrich, #R0395) was varied within the range of from 0.2 nM to 50 nM. A parent strain (WT:BY4741, Open Biosystems, #YSC1048), a barrier-free strain (BF:KE457), and a super barrier-free strain (SBF:KE477), which had been subjected to static culture at room temperature for 2 days, were added such that the final cell numbers was at a 1000-fold dilution, and then subjected to static culture at 30° C.
as §2

[10] = system: barrier-free strain (BF:KE457); assay: Evaluation of sensitivity to rapamycin (area score, ARS), barrier-free strain; settings: FIG. 5
Protocol: as §4, §5, §2

[11] = system: parent strain (WT:BY4741); assay: Evaluation of sensitivity to rapamycin (area score, ARS), parent strain; settings: FIG. 5
Protocol: as §4, §5, §2

[12] = based on lovastatin concentrations at which an area score of about 10 was obtained

## C[C@@H]1C[C@@H]([C@H](O)CC2CC(=O)NC(=O)C2)C(=O)[C@@H](C)C1 [cycloheximide]
[1]
  growth in the presence of cycloheximide: could not grow
[2]
  growth in the presence of cycloheximide: cannot grow

## CC[C@H](C)C(=O)O[C@H]1C[C@@H](C)C=C2C=C[C@H](C)[C@H](CC[C@@H]3C[C@@H](O)CC(=O)O3)[C@H]21 [lovastatin]
[3]; FIG. 4
  concentration at which maximum inhibiting activity was exhibited: 50 µM
[3]; [12]
  sensitization relative to the WT strain: 8 times
[4]; lovastatin 6.25 μM
  sensitivity of HMG1 gene knockout strain: high sensitivity
[4]; lovastatin 12.5 μM
  sensitivity of HMG1 gene knockout strain: high sensitivity
[5]
  cell proliferation inhibiting effect: only a slight cell proliferation inhibiting effect
[6]
  sensitivity of BTS1-knockout strain: most sensitive knockout strain
  sensitivity of HMG1 gene knockout strain: high sensitivity
[7]; FIG. 4
  concentration at which maximum inhibiting activity was exhibited: 25 µM
[7]; [12]
  sensitization relative to the WT strain: 16 times
[8]; lovastatin 3.125 μM
  sensitivity of HMG1 gene knockout strain: not found as a strain exhibiting sensitivity
[8]; lovastatin 3.125 μM and 12.5 μM
  sensitivity of BTS1-knockout strain: not found as a strain exhibiting sensitivity
[8]; lovastatin 12.5 μM
  sensitivity of HMG1 gene knockout strain: not found as a strain exhibiting sensitivity

## CO[C@H]1C[C@@H]2CC[C@@H](C)[C@@](O)(O2)C(=O)C(=O)N2CCCC[C@H]2C(=O)O[C@H]([C@H](C)C[C@@H]2CC[C@@H](O)[C@H](OC)C2)CC(=O)[C@H](C)/C=C(\C)[C@@H](O)[C@@H](OC)C(=O)[C@H](C)C[C@H](C)/C=C/C=C/C=C/1C [rapamycin]
[9]; FIG. 5
  concentration at which maximum effect was exhibited: 6.25 nM
[9]; based on rapamycin concentrations at which an area score of about 10 was obtained
  sensitization relative to the WT strain: 8 times
[10]
  concentration at which maximum cell proliferation inhibiting effect was observed: 50 nM
[11]
  concentration at which maximum cell proliferation inhibiting effect was observed: 50 nM
